Positions of bridges follow the written chain, without caps; N, C: chain ends. Non-standard residues stand in square brackets, D forms with d. Residues, ends and D or L forms follow the SMILES beside them.
Key:
[1] = Chemical stability assay in DMEM with 10% FBS; type: in vitro ADME; details: bovine, 37° C., values represent 95% confidence intervals
Experimental: These assays were conducted by Pharmaron Beijing CO., Ltd. Cyclic peptides working solutions were prepared at 10 μM in DMEM with 10% FBS (Avantor, Cat #76294-180) or human plasma (Pooled, Male & Female, BioIVT, Cat #HMN666664). The assays were performed in duplicate. Vials were incubated at 37° C. at 60 rpm in a water bath and taken at designated time points including 0, 480, 1080 and 1440 min. For each time point, the initiation of the reaction was staggered so all the time points were terminated with cold acetonitrile containing internal standards (IS, 100 nM alprazolam, 200 nM labetalol, 200 nM Imipramine and 2 μM ketoplofen) at the same time. Samples were vortexed then centrifuged at 4° C. to remove proteins. The supernatants from centrifugation were diluted by ultra-pure H2O and used for LC-MS/MS analysis. All calculations were carried out using GraphPad Prism. Remaining percentages of parent compounds at each time point were estimated by determining the peak area ratios from extractedion chromatograms.

Gαi = Gαi (Homo sapiens, UniProt P63096); experiment: Nucleotide exchange step (GDP dissociation / GTPγS binding); type: biochemical; details: compared with Gαs
Sequence of Gαi (P63096 whole entry): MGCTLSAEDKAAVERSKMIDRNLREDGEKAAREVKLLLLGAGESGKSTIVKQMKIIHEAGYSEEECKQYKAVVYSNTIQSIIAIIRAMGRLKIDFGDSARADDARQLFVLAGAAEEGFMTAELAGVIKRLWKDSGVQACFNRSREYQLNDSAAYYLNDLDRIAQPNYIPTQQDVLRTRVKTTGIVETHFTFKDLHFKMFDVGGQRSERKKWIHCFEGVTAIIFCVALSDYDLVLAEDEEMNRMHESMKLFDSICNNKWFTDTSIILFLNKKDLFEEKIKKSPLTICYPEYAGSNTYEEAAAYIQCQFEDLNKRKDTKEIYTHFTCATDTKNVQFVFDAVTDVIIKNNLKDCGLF
Experimental: Gα proteins were diluted to 400 nM in the EDTA buffer (20 mM HEPES 7.5, 150 mM NaCl, 1 mM EDTA-Na 8.0, 2 mM DTT). [^3H]GDP (1 mCi/mL, 25.2 μM) was added to a final concentration of 1.2 μM, followed by cyclic peptides addition. After incubation at 20° C. for 30 minutes, the same volume of assay buffer ([…] HEPES-Na 7.5, 150 mM NaCl, 2 mM MgCl2, and 1 mM GDP) was added to initiate [^3H]GDP dissociation. At various points, […] was removed and mixed with 390 μL of ice-cold wash buffer (20 mM HEPES 7.5, 150 mM NaCl, 20 mM MgCl2). The mixture was immediately filtered through a mixed cellulose membrane (25 mm, 0.22 μm) held by a microanalysis filter holder (EMD Millipore). The membrane was washed by ice-cold wash buffer (500 μL×3), put in a 6-mL plastic vial and air-dried (room temperature 1.5 h). 5 mL of CytoScint-ES Liquid Scintillation Cocktail was added to each vial. After incubation overnight at room temperature, the vial was used for liquid scintillation counting with a LS 6500 Multi-Purpose Scintillation Counter.
Gα proteins were diluted to 10 μM with dilution buffer (20 mM HEPES 7.5, 150 mM NaCl, 1 mM MgCl2, 2 mM DTT, and 20 μM GDP) and incubated with 5× stocks of cyclic peptides at room temperature for 2 hours. GTPγS binding was initiated by mixing with the reaction buffer at room temperature (50 nM [35S]GTPγS and 100 μM GTPγS in dilution buffer) at room temperature. […]

Gαs S275L = Gαs S275L (Homo sapiens, UniProt P63092, S275L); experiment: Adenylyl cyclase activation assay in the presence of Gβ1/γ2; type: biochemical; parameters: made in house; host or cells: Escherichia coli BL21(DE3) (Gαs, VC1, IIC2); Sf9 insect cells (Gβ1/Gγ2); details: 6.25 μM of GN13
Sequence of Gαs S275L (P63092 7-380 isoform P63092-2 S261L limits assumed): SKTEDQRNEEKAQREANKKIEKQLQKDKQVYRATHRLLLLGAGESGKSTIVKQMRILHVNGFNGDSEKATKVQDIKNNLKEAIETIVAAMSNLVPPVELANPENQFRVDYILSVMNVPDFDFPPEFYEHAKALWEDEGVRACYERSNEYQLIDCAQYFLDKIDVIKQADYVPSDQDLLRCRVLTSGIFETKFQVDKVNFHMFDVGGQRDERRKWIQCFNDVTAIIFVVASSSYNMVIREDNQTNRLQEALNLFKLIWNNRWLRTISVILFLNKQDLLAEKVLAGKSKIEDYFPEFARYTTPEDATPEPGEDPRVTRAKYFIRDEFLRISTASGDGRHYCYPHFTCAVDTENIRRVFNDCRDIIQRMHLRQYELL
Experimental: GN13 inhibition of Gαs proteins at various concentrations (FIG. 18E).
WT Gαs and S275L mutant at a concentration of 8.5 mg/mL (about 190 μM) in 20 mM HEPES 8.0, 150 mM NaCl, 5 mM MgCl2, 1 mM EDTA-Na 8.0 were diluted to a series of concentrations (4 μM, 1.33 μM, 0.44 μM, 0.15 μM, 49.4 nM, 16.5 nM, 5.5 nM, 0 nM) in dilution buffer (1×PBS 7.4, 0.1% BSA, 1 mM EDTA-Na 8.0, 2 mM DTT, 0.1 mM MgCl2) plus 1 mM GppNHp. After incubation at room temperature for 1 hour to allow nucleotide exchange, 2.5 μL of each sample was then mixed with 1 μL of MgCl2 stock (20 mM MgCl2, 1× PBS 7.4, 0.1% BSA) in an OptiPlate-384, White Opaque 384-well Microplate. 2 μL of adenylyl cyclase/Gβγ stock (2 μM VC1, 2 nM IIC2, 150 μM FSK, 1× PBS 7.4, 0.1% BSA, 10 μM Gβ1/γ2(C68S)) was added, followed by addition of 2.5 μL 25 μM GN13 stock in 1× PBS 7.4, 0.1% BSA. […] The cAMP concentrations were measured by the LANCE Ultra cAMP kit. […]
A cAMP standard curve was generated in the same plate using the 50 μM cAMP standard in the kit. […] 10 μL of each diluted sample was mixed with 5 μL of 4× Eu-cAMP tracer and 5 μL of 4× ULight-anti-cAMP in a white, opaque Optiplate-384 microplate, incubated for 1 hour at room temperature, and the time-resolved fluorescence resonance energy transfer (TR-FRET) signals were read on a Spark 20M plate reader. […]

SMILES | half-life at 10 μM [1] [h] | sensitivity of the nucleotide exchange step of Gαi (Gαi) | inhibition of adenylyl cyclase activation by Gαs S275L (Gαs S275L)
CC[C@H](C)[C@@H]1NC(=O)[C@H](CC(C)C)NC(=O)[C@@H](Cc2ccc(O)cc2)NC(=O)CSC[C@@H](C(=O)NCC(N)=O)NC(=O)[C@@H]2CCCN2C(=O)[C@H](CC(C)C)NC(=O)[C@H](CC(N)=O)NC(=O)[C@H](CC(C)C)NC(=O)[C@H](C)NC(=O)[C@H](Cc2c[nH]c3ccccc23)NC(=O)[C@H](CCC(N)=O)NC(=O)[C@H](CCCNC(=N)N)NC(=O)[C@H](Cc2ccccc2)NC(=O)[C@H]([C@@H](C)O)NC1=O [GD20-F10L] ({CH2CO}-[dY]LITFRQWALNLPCG-NH2; thioether N-14) | 37.4 to 50.3 | – | –
CC[C@H](C)[C@@H]1NC(=O)[C@H](C)NC(=O)[C@H](Cc2ccc(O)cc2)NC(=O)[C@H](C(C)C)NC(=O)[C@H](CO)NC(=O)[C@H](CCC(=O)O)NC(=O)[C@H](Cc2ccccc2)NC(=O)[C@@H](Cc2ccc(O)cc2)NC(=O)CSC[C@@H](C(=O)NCC(N)=O)NC(=O)[C@H](CC(C)C)NC(=O)[C@H]([C@@H](C)O)NC(=O)CNC(=O)[C@H](Cc2c[nH]c3ccccc23)NC1=O [GN13] ({CH2CO}-[dY]FESVYAIWGTLCG-NH2; thioether N-13) | – | much less sensitive | resistant to GN13 inhibition

From patent publication US20240336657A1, “G-ALPHA-S PEPTIDE INHIBITORS AND USES THEREOF” (The Regents of the University of California, priority 2021, published 2024)
